Source: patent US12404252B2, “Salt of 2-amino-2-(2-(1-decyl-1H-1,2,3-triazol-4-yl)ethyl)propane-1,3-diol, and pharmaceutical composition containing same” (NEXTGEN BIOSCIENCE CO., LTD, priority 2021, dated 2025)
Converted amounts (≈) assume the structure as drawn. “And” between values parts separate entries of the source, which are not always exact repeats. Equal values may be shown once.

Tests used:
[1] = biological target: hERG potassium ion channel (Homo sapiens, UniProt Q12809)
[2] = tested on: T cells, CD4 T cells, and CD8 T cells; assay: Inhibitory effect against rat immune cells (FACS after oral administration); assay type: in vivo; conditions: SD rats
Procedure: In order to evaluate the effect of Compound 1a on rat immune cells, Compound 1a was administered orally to SD rats at 10 mg/kg/day, and then lymphocytes in peripheral blood (PB) and bone marrow (BM) were classified into T cells, CD4 T cells, and CD8 T cells. FACS analysis was performed 0, 4, 8, 12, 24, 36, and 48 hours after administration of the test substance. Cell number was measured and expressed as a percentage relative to that at time 0 (% of control). The numbers of T cells, CD4 T cells, and CD8 T cells were measured and expressed as percentages relative to those at time 0 (% of control).

[3] = Hygroscopicity test by DVS; assay type: physicochemical
Description: Dynamic vapor sorption (DVS) is a method that has been used for a long time to investigate the interactions between active pharmaceutical ingredients (APIs), and pharmaceutical preparations and water. Here, to analyze the water absorption rate of a sample at a specific temperature, measurements are made by exposing the sample to the desired relative humidity using a DVS water sorption analyzer (hygroscopicity analyzer) until the change in weight of the sample stabilizes.

[4] = Oxidation stability test (30% H2O2); assay type: physicochemical
[5] = tested on: alopecia areata model (C3H/HeJ); assay: Alopecia areata model (C3H/HeJ); assay type: in vivo; conditions: C3H/HeJ mice, 30 mg/kg orally, 12 weeks
Procedure: The efficacy of Compound 1a against alopecia areata was evaluated using a model (C3H/HeJ) with spontaneous alopecia areata. The C3H/HeJ mice used in the test are animals that spontaneously develop alopecia areata with increasing age. […] 30 mg/kg of Compound 1a was administered orally to the mice for 12 weeks, and then disease-free ratio and AA lesion area were measured.

Photostability test = assay type: physicochemical
Procedure: For a photostability test, 10 mg of Compound 1a was exposed to 1.2 million lux hours of ultraviolet and visible light at room temperature. For an oxidation stability test, 0.2 mL of 30% H2O2 and 1 mg of Compound 1a were placed in a 2-mL vial and stored at 25° C. for up to 24 hours. The photostability and oxidation stability conditions used to evaluate the fumarate salt of Compound 1 and the evaluation results are as follows.

[6] = tested on: unilateral ureteral obstruction (UUO) model; assay: Unilateral ureteral obstruction (UUO) renal fibrosis model; assay type: in vivo; conditions: UUO mice, 2 weeks
Procedure: The antifibrotic effect of Compound 1a in renal disease was evaluated using the unilateral ureteral obstruction (UUO) model, which is a renal fibrotic disease model. Kidney fibrosis was induced by unilateral ureteral obstruction of mice, and then Compound 1a at 10, 30, and 90 mg/kg/day and the positive control substance telmisartan at 30 mg/kg/day were orally administered to the mice once a day for 2 weeks.

[7] = pH stability and salinity stability, 40±2° C.; assay type: physicochemical
Procedure: pH and salinity stability tests for the hemifumirate salt of Compound 1 were performed at an initial target concentration of 2 mg/mL. The pH and salinity stability conditions used to evaluate the hemifumirate salt of Compound 1 and the evaluation results are as follows.
• 40±2° C.: Conditions in which the vial was capped and upright • Storage container for stability: 2-mL screw neck clear glass vial (manufactured by La-Pha-Pack) • Target concentration: ˜ 2 mg/mL (adding the sample to 1 mL of medium, followed by vortexing for 30 seconds) • 500 μL of the test mixture was dissolved in 500 μL of a diluent (1:1 methanol/water), and the prepared solution was analyzed by HPLC without filtration.

[8] = Solubility in aqueous media (HPLC); assay type: physicochemical; conditions: for solubility at 24 h: thermodynamic from solid
Procedure: The solubility of Compound 1a prepared in Example 1 was evaluated in several different media, including pH 1.2 hydrochloric acid buffer, pH 3.0 citrate buffer, pH 4.7 acetate buffer, pH 6.8 phosphate buffer, simulated gastric fluid, fasted-state simulated intestinal fluid, fed-state simulated intestinal fluid, and water. About 2.17 mg of sample (based on the free base of Compound 1) for each medium was taken into a 2-mL transparent glass vial and […] of medium was added (constituents of the salt were considered Compound 1: counterion=1:0.5; target concentration: 2 mg/mL). The mixture was stirred using a magnetic stirrer at 250 RPM for 24 hours at 25° C. Next, the pH and appearance of the mixture were recorded and the mixture was filtered through a MultiScreen® HTS-HV 96-well plate (manufactured by Merck; 0.45-μm hydrophilic, low-protein-binding Durapore® membrane). Solubility was determined using HPLC, and a calibration curve was created by injecting a known concentration of Compound 1a. The filtered sample was injected (diluted appropriately as necessary) and the concentration of Compound 1a (mg/mL) in the filtrate was calculated from the calibration curve (taking salt coefficient into account). The analysis results are as follows.

Sequence of hERG potassium ion channel (Q12809 whole entry): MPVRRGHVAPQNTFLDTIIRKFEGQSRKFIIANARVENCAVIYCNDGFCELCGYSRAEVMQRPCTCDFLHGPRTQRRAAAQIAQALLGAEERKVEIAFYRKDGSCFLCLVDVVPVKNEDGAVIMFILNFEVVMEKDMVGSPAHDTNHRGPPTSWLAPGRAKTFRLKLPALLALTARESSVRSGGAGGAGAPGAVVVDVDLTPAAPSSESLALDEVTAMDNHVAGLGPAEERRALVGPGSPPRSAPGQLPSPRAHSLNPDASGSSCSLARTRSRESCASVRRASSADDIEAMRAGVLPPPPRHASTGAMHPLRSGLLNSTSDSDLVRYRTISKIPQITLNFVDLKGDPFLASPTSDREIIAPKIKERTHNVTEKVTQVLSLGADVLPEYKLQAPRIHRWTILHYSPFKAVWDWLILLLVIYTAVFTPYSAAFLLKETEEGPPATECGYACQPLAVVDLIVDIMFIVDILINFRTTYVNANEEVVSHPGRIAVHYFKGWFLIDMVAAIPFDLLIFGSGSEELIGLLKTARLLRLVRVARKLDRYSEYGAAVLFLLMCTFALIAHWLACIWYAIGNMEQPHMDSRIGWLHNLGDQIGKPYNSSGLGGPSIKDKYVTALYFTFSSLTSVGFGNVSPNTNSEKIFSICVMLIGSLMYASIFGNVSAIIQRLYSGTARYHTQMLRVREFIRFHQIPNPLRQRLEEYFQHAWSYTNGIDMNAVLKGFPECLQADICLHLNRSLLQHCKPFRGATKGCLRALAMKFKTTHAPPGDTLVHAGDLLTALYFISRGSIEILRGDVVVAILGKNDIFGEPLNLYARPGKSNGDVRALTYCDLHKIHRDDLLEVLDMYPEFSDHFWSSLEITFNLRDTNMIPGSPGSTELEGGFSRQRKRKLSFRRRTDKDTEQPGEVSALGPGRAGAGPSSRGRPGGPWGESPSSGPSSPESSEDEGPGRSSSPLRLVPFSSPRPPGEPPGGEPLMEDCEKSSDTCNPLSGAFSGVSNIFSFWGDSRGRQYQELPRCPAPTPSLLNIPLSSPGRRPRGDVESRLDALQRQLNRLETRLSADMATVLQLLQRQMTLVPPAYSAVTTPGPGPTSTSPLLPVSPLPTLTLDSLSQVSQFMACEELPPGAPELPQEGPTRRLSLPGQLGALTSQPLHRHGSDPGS

## CCCCCCCCCCn1cc(CCC(N)(CO)CO)nn1 [Compound 1a, 2-amino-2-(2-(1-decyl-1H-1,2,3-triazol-4-yl)ethyl) propane-1,3-diol]
[1]
  Hill coefficient: 1.527
[1]; 30 μM
  compensated suppression rate (%) of hERG channel currents: 82.62±7.31%
[2]
  change of cell number in bone marrow (BM): no change or a tendency to increase
[2]; dose-dependent, doses of the three values not given
  inhibitory effect on number of T cells in peripheral blood (PB): 70% and 80% and 87%
[3]; 90% RH, listed as Example 1
  hygroscopicity (DVS evaluation, in words): very low hygroscopicity
[3]; water adsorption at 90% RH, DVS
  DVS remark (adsorption at 90% RH): less than 2%
[4]; 30% H2O2 25° C. for 3 hours
  Purity %: 99.50%
[4]; 30% H2O2 25° C. for 24 hours
  Purity %: 94.30%
[5]
  body weight versus control group: no significant difference
  days when 100% alopecia areata was observed: 84 days
Photostability test; Photostability 1.2 million lux hours exposed
  Purity %: 99.52%
Photostability test; Photostability 1.2 million lux hours unexposed
  Purity %: 99.70%
[6]; 10 mg/kg/day orally
  Kidney hydroxyproline: statistically significantly decreased
[6]; 30 mg/kg/day orally
  Kidney hydroxyproline: statistically significantly decreased
[6]; 90 mg/kg/day orally
  Kidney hydroxyproline: statistically significantly decreased
  Kidney hydroxyproline (second statement, 'in particular', p<0.05): statistically significantly decreased
[7]; SGF/40° C., 1-week
  Purity %: 99.25%
[7]; SGF/40° C., 2-week
  Purity %: 99.29%
[7]; SGF/40° C., Initial
  Purity %: 99.13%
[7]; Saline (0.9% NaCl)/40° C., 1-week
  Purity %: 99.05%
[7]; Saline (0.9% NaCl)/40° C., Initial
  Purity %: 99.20%
[7]; pH 1.2 HCl buffer/40° C., 1-week
  Purity %: 98.26%
[7]; pH 1.2 HCl buffer/40° C., 2-week
  Purity %: 98.76%
[7]; pH 1.2 HCl buffer/40° C., Initial
  Purity %: 98.92%
[7]; pH 4.7 acetate buffer/40° C., 1-week
  Purity %: 99.46%
[7]; pH 4.7 acetate buffer/40° C., 2-week
  Purity %: 99.69%
[7]; pH 4.7 acetate buffer/40° C., Initial
  Purity %: 99.23%
[7]; pH 6.8 phosphate buffer/40° C., 1-week
  Purity %: 98.36%
[7]; pH 6.8 phosphate buffer/40° C., Initial
  Purity %: 99.20%
[8]; 0.5% Methylcellulose, target 2 mg/mL
  Visual observation: Clear solution
[8]; 25 °C, all of the aqueous media except phosphate buffer (pH 6.8)
  solubility at 24 h: > 2000 µg/mL
[8]; FaSSIF (pH 6.5), target 2 mg/mL
  Visual observation: Clear solution
[8]; FeSSIF (pH 5.8), target 2 mg/mL
  Visual observation: Clear solution
[8]; SGF (pH 2.0), target 2 mg/mL
  Visual observation: Clear solution
[8]; Water, target 2 mg/mL
  Visual observation: Clear solution
[8]; aqueous buffer, pH 3.0 Citrate buffer, 25° C., 24 hours, final pH 3.42
  solubility at 24 h: > 2000 µg/mL
[8]; aqueous buffer, pH 4.7 Acetate buffer, 25° C., 24 hours, final pH 5.11
  solubility at 24 h: > 2000 µg/mL
[8]; aqueous buffer, pH 6.8 Phosphate buffer, 25° C., 24 hours, final pH 6.94
  solubility at 24 h: 306 µg/mL (≈ 0.937 mM)
[8]; aqueous with cosolvent or surfactant or cyclodextrin, 0.5% Methylcellulose, 25° C., 24 hours, final pH 6.04
  solubility at 24 h: > 2000 µg/mL
[8]; pH 1.2 HCl buffer, target 2 mg/mL
  Visual observation: Clear solution
[8]; pH 3.0 Citrate buffer, target 2 mg/mL
  Visual observation: Clear solution
[8]; pH 4.7 Acetate buffer, target 2 mg/mL
  Visual observation: Clear solution
[8]; pH 6.8 Phosphate buffer, target 2 mg/mL
  Visual observation: White suspension
[8]; simulated gastric fluid, SGF (pH 2.0), 25° C., 24 hours, final pH 3.02
  solubility at 24 h: > 2000 µg/mL
[8]; simulated gastric fluid, pH 1.2 HCl buffer, 25° C., 24 hours, target 2 mg/mL, final pH 1.75
  solubility at 24 h: > 2000 µg/mL
[8]; FaSSIF (pH 6.5), 25° C., 24 hours, final pH 6.60
  solubility at 24 h: > 2000 µg/mL
[8]; FeSSIF (pH 5.8), 25° C., 24 hours, final pH 5.97
  solubility at 24 h: > 2000 µg/mL
[8]; Water, 25° C., 24 hours, final pH 6.04
  solubility at 24 h: > 2000 µg/mL
